The text below walks through data of ChEMBL document CHEMBL3885881, “DrugMatrix”.

This data set is filed under the species Rattus norvegicus. Description: DrugMatrix - Regimen: Daily Repeat. It is filed as toxicity, organism-based, Sprague-Dawley. The arrangement: regimen Daily Repeat, gender Male, age 6-8 weeks. The following applies: in vivo, po, 20 mg/kg, tissue Plasma, route oral GAVAGE, dose level Low, vehicle 100 % WATER.

Molecules are shown by their SMILES.

In turn, `COc1ccc(CCN(C)CCCC(C#N)(c2ccc(OC)c(OC)c2)C(C)C)cc1OC` (configuration not stated) showed a POTASSIUM (72 h, time 3 day) of 6.68 MEQ/L and a POTASSIUM (120 h, time 5 day) of 6.29 MEQ/L.
